Values after ≈ are worked out from the molar mass of the structure shown. Values joined by “and” are separate entries in the source; they are usually repeats but may differ in a detail not shown here. Identical values can stand only once. Like-named read-outs stand apart in the source and are kept apart here. Peptide text beside a SMILES is read from it.
What was measured:
[1] = 1.0 mg/kg, 30 min IV infusion, individual monkeys
Description: Animals will be obtained from the Test Facility's colony of adult male cynomolgus monkeys (Macaca fascicularis) of Chinese origin. Animals will be weighed prior to dosing.
Animals will be fasted a minimum of 2 hours prior to procedures requiring the administration of ketamine anesthesia. The diet will also be supplemented with other nutrients by feeding items such as raisins or fresh fruits that are presented to the animal as part of an environmental enrichment program. Offering items known to cause diarrhea will be avoided.
Intravenous administration will be via 30 minute infusion into a temporary percutaneous catheter placed into a saphenous vein. […]
The peptide will be purified from plasma samples from each macaque using a cation exchange-based solid-phase extraction process. Prior to extraction, a known concentration of a mass-adjusted internal standard (IS) will be added to assess recovery and allow for quantitation. […] Compound plasma concentrations will be determined by comparing to and compensating with co-purified IS peak intensity and validated calibrated standard curves.
Toxicokinetic parameters will be calculated using non-compartmental methods as implemented in the Phoenix® WinNonlin® ver. […] Values below the lower limit of quantitation (BLQ) will be assigned a value of zero for the toxicokinetic calculations. […]

[2] = tested on: Acinetobacter spp. isolates (n = 104); conditions: Acinetobacter spp. (n = 104); CLSI breakpoints
Description: (§1) Comparator antibiotics were supplied by Micromyx, and stock solutions were prepared on the first day of testing using solvents recommended by CLSI (1). Stock solutions of all compounds were made at 40× the final testing concentration and stored at −80° C. prior to testing. Information regarding compound source, catalog and lot number, testing concentrations and drug diluent for the comparators and test agent are detailed below in Table 3.
(§2) The test organisms evaluated in this study consisted of clinical isolates from the Micromyx Repository and reference isolates from the American Type Culture Collection (ATCC; Manassas, VA). The clinical isolates were obtained from USA hospitals. Upon initial receipt at Micromyx, the organisms were sub-cultured onto an appropriate agar medium. Following incubation, colonies were harvested from these plates and cell suspensions prepared and frozen at −80° C. with a cryoprotectant. Prior to testing, the isolates were streaked from frozen vials onto Trypticase Soy Agar with 5% sheep blood (Becton Dickenson [BD]; Sparks, MD; Lot Nos. 7173618, 7166759, 7208688, 72144895, 7228505 and Remel Lenexa, KS Lot No. 212574). Plates were incubated at 35° C. overnight.
(§3) Mueller Hinton II broth (MHB II; BD; Lot Nos. 6258541 and 7143896) was used for MIC testing of aerobic organisms.
(§4) MIC values were determined using a broth microdilution procedure described by CLSI (1, 3). Automated liquid handlers (Multidrop 384, Labsystems, Helsinki, Finland; Biomek 2000 and Biomek FX, Beckman Coulter, Fullerton CA) were used to conduct serial dilutions and liquid transfers.
(§5) To prepare the drug mother plates, which would provide the serial drug dilutions for the replicate daughter plates, the wells of columns 2-12 of standard 96-well microdilution plates (Costar 3795) were filled with 150 μl of the designated diluent for each row of drug. The test articles and comparator compounds (300 μl at 40× the highest concentration to be tested) were dispensed into the appropriate wells in column 1. The Biomek 2000 was then used to make 2-fold serial dilutions in the mother plates from column 1 through column 11. The wells of Column 12 contained no drug and served as the organism growth control wells for the assay.
(§6) The daughter plates were loaded with 185 μL per well of MHB II using the Multidrop 384. The daughter plates were completed on the Biomek FX instrument which transferred 5 μL of drug solution from each well of a mother plate to the corresponding well of each daughter plate in a single step. A standardized inoculum of each test organism was prepared per CLSI methods (1). The inoculum for each organism was dispensed into sterile reservoirs divided by length (Beckman Coulter), and the Biomek 2000 was used to inoculate the plates. Daughter plates were placed on the Biomek 2000 work surface in reverse orientation so that inoculation took place from low to high drug concentration.
(§7) Plates were stacked 3-4 high, covered with a lid on the top plate, placed in plastic bags, and incubated at 35° C. for 16 to 20 hrs. Following incubation, the microplates were removed from the incubator and viewed from the bottom using a plate viewer. […] The MIC was read and recorded as the lowest concentration of drug that inhibited visible growth of the organism.
(§8) Clinical breakpoints to determine percent resistance within a given organism group were obtained from CLSI (3), with the exception of colistin for K. pneumoniae, Enterobacter spp., and E. coli, which are only available from EUCAST.

[3] = tested on: Escherichia coli isolates (n = 101); conditions: Escherichia coli (n = 101); CLSI breakpoints, colistin EUCAST
Description: as §1, §2, §3, §4, §5, §6, §7, §8

[4] = tested on: Klebsiella pneumoniae isolates (n = 101); conditions: Klebsiella pneumoniae (n = 101); CLSI breakpoints, colistin EUCAST
Description: as §1, §2, §3, §4, §5, §6, §7, §8

[5] = tested on: Pseudomonas aeruginosa isolates (n = 109); conditions: Pseudomonas aeruginosa (n = 109), CLSI breakpoints
Description: as §1, §2, §3, §4, §5, §6, §7, §8

[6] = tested on: Enterobacter spp. isolates (Enterobacter aerogenes and E. cloacae, n = 102); test: organism not typed
Description: as §1, §2, §3, §4, §5, §6, §7, §8

[7] = tested on: Staphylococcus aureus ATCC 29213 (MSSA; QC); conditions: S. aureus ATCC 29213; established CLSI QC range; cited from earlier work
[8] = tested on: Streptococcus pneumoniae ATCC 49619 (QC); conditions: S. pneumoniae ATCC 49619; established CLSI QC range; cited from earlier work
[9] = tested on: Enterococcus faecalis ATCC 29212 (VSE; QC); conditions: E. faecalis ATCC 29212; established CLSI QC range; cited from earlier work
[10] = tested on: Escherichia coli ATCC 25922 (QC); conditions: E. coli ATCC 25922; established CLSI QC range; cited from earlier work
[11] = tested on: Pseudomonas aeruginosa ATCC 27853 (non-MDR; QC); conditions: P. aeruginosa ATCC 27853; established CLSI QC range; cited from earlier work

Row | SMILES | Dose Normalized Cmax [1] | % R (percent of isolates resistant) [2] [%] | % R (percent of isolates resistant) [3] [%] | % R (percent of isolates resistant) [4] [%] | % R (percent of isolates resistant) [5] [%] | % R (percent of isolates resistant) ([5]; listed as meropenem) [%] | MIC50 [6] [µg/mL] | MIC90 [6] [µg/mL] | % R (percent of isolates resistant) ([6]; Enterobacter spp. (n = 102), CLSI breakpoints, colistin EUCAST) [%] | MIC ([6]; read-out: Mode (MIC)) [µg/mL] | MIC QC range (in parentheses under the MIC) [7] | MIC QC range (in parentheses under the MIC) [8] | MIC QC range (in parentheses under the MIC) [9] | MIC QC range (in parentheses under the MIC) [10] | MIC QC range (in parentheses under the MIC) [11]
1 | C[C@@H](O)[C@H](NC(=O)[C@H](Cc1c[nH]cn1)NC(=O)[C@@H](NC(=O)[C@H](CCCCN)NC(=O)[C@H](CCCCN)NC(=O)[C@@H](NC(=O)[C@H](CCCCN)NC(=O)[C@@H](NC(=O)[C@H](Cc1c[nH]cn1)NC(=O)[C@@H](NC(=O)[C@H](CCCCN)NC(=O)[C@H](CCCCN)NC(=O)[C@@H](NC(=O)[C@H](CCCCN)NC(=O)[C@@H](NC(=O)[C@H](Cc1c[nH]cn1)NC(=O)[C@@H](NC(=O)[C@H](CCCCN)NC(=O)[C@@H](N)CCCCN)[C@@H](C)O)[C@@H](C)O)[C@@H](C)O)[C@@H](C)O)[C@@H](C)O)[C@@H](C)O)[C@@H](C)O)C(=O)N[C@@H](CCCCN)C(=O)O [SEQ ID NO: 13] (H-KKTHTKTKKTHTKTKKTHTK-OH) | 5000 and 7000 and 6000 | – | – | – | – | – | – | – | – | – | – | – | – | – | –
2 | C[C@@H](O)[C@H]1C(=O)N2C(C(=O)O)=C(S[C@@H]3CN[C@H](C(=O)N(C)C)C3)[C@H](C)[C@H]12 [Meropenem] | – | 65.4 | 1 | 50.5 | 20.2 | 20 | 0.03 (≈ 0.0782 µM) | 0.12 (≈ 0.313 µM) | 3.9 | 0.03 (≈ 0.0782 µM) | (0.03-0.12) μg/mL | (0.03-0.25) μg/mL | (2-8) μg/mL | (0.008-0.06) μg/mL | (0.12-1) μg/mL
